Assay results: PubChem BioAssay (NCI)
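Dose response: 5 concentrations. Exposure: 48 h. Format: 96-well plates. Endpoint: linear interpolation; highest concentration if not reached. Here, GI50 denotes the concentration required for 50% inhibition of growth. Definition used: TGI = concentration required for complete inhibition of growth.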

Legend:
Assay in all cases: inhibition of tumour cell growth, NCI panel, 48 h; in the data active = GI50 below about 0.43 µM; inactive = the rest
EKVX NSCLC = test system: EKVX NSCLC
TK-10 renal = test system: TK-10 renal
RXF 393 renal = test system: RXF 393 renal
OVCAR-3 ovarian = test system: OVCAR-3 ovarian
MCF7 breast = test system: MCF7 breast
HL-60(TB) leukemia = test system: HL-60(TB) leukemia
U251 CNS = test system: U251 CNS
HCT-15 colon = test system: HCT-15 colon
OVCAR-4 ovarian = test system: OVCAR-4 ovarian
UACC-257 melanoma = test system: UACC-257 melanoma
SN12C renal = test system: SN12C renal
SF-268 CNS = test system: SF-268 CNS
LOX IMVI melanoma = test system: LOX IMVI melanoma
UO-31 renal = test system: UO-31 renal
SF-539 CNS = test system: SF-539 CNS
SNB-75 CNS = test system: SNB-75 CNS
HT29 colon = test system: HT29 colon
MDA-MB-231 breast = test system: MDA-MB-231 breast
HCT-116 colon = test system: HCT-116 colon
DU-145 prostate = test system: DU-145 prostate
COLO 205 colon = test system: COLO 205 colon
SK-OV-3 ovarian = test system: SK-OV-3 ovarian
MDA-MB-435 = test system: MDA-MB-435
BT-549 breast = test system: BT-549 breast
NCI-H226 lung = test system: NCI-H226 lung
OVCAR-5 ovarian = test system: OVCAR-5 ovarian
NCI-H522 lung = test system: NCI-H522 lung
HOP-62 NSCLC = test system: HOP-62 NSCLC
786-0 renal = test system: 786-0 renal
IGROV1 ovarian = test system: IGROV1 ovarian
SNB-19 CNS = test system: SNB-19 CNS
CCRF-CEM leukemia = test system: CCRF-CEM leukemia
HCC-2998 colon = test system: HCC-2998 colon
SR leukemia = test system: SR leukemia
M14 melanoma = test system: M14 melanoma
CAKI-1 renal = test system: CAKI-1 renal
NCI-H23 lung = test system: NCI-H23 lung
KM12 colon = test system: KM12 colon
HS 578T breast = test system: HS 578T breast
MOLT-4 leukemia = test system: MOLT-4 leukemia
OVCAR-8 ovarian = test system: OVCAR-8 ovarian
NCI/ADR-RES ovarian = test system: NCI/ADR-RES ovarian
SK-MEL-2 melanoma = test system: SK-MEL-2 melanoma
ACHN renal = test system: ACHN renal
K-562 leukemia = test system: K-562 leukemia
A498 renal = test system: A498 renal
SF-295 CNS = test system: SF-295 CNS
MALME-3M melanoma = test system: MALME-3M melanoma
SW-620 colon = test system: SW-620 colon
UACC-62 melanoma = test system: UACC-62 melanoma
A549 NSCLC = test system: A549 NSCLC
NCI-H460 lung = test system: NCI-H460 lung
PC-3 prostate = test system: PC-3 prostate
RPMI-8226 leukemia = test system: RPMI-8226 leukemia
T-47D breast = test system: T-47D breast
SK-MEL-5 melanoma = test system: SK-MEL-5 melanoma
HOP-92 NSCLC = test system: HOP-92 NSCLC
SK-MEL-28 melanoma = test system: SK-MEL-28 melanoma

CCC(C)/C=C(C)/C=C/C(=O)c1c(O)c(-c2ccc(O)cc2)c[nH]c1=O (centres undefined)
19.8 µM: TGI (SNB-19 CNS)
8.82 µM: TGI (NCI-H460 lung)
11 µM: TGI (SK-MEL-2 melanoma)
27.7 µM: TGI (NCI/ADR-RES ovarian)
15 µM: TGI (MCF7 breast) | TGI (IGROV1 ovarian)
12.6 µM: TGI (HCT-15 colon) | TGI (CAKI-1 renal)
13 µM: TGI (U251 CNS)
17 µM: TGI (T-47D breast)
6.97 µM: TGI (RXF 393 renal)
23.5 µM: TGI (OVCAR-5 ovarian)
16.4 µM: TGI (UACC-257 melanoma) | TGI (A498 renal)
11.9 µM: TGI (SW-620 colon)
13.9 µM: TGI (OVCAR-8 ovarian)
19.7 µM: TGI (CCRF-CEM leukemia) | TGI (M14 melanoma)
14 µM: TGI (SF-268 CNS)
14.4 µM: TGI (PC-3 prostate)
15.1 µM: TGI (MOLT-4 leukemia) | TGI (K-562 leukemia)
14.1 µM: TGI (MALME-3M melanoma)
14.2 µM: TGI (ACHN renal)
10.8 µM: TGI (NCI-H522 lung)
9.56 µM: TGI (HS 578T breast)
13.1 µM: TGI (HCT-116 colon)
12.5 µM: TGI (SF-539 CNS)
21.4 µM: TGI (MDA-MB-231 breast)
13.2 µM: TGI (LOX IMVI melanoma)
9.33 µM: TGI (OVCAR-3 ovarian)
19.5 µM: TGI (COLO 205 colon)
14.3 µM: TGI (UO-31 renal) | TGI (SNB-75 CNS)
6.49 µM: TGI (SR leukemia)
29.4 µM: TGI (SK-OV-3 ovarian)
15.3 µM: TGI (TK-10 renal) | TGI (BT-549 breast)
18.1 µM: TGI (SN12C renal)
16.7 µM: TGI (786-0 renal) | TGI (SK-MEL-5 melanoma)
16.3 µM: TGI (HOP-62 NSCLC)
25.3 µM: TGI (OVCAR-4 ovarian)
17.6 µM: TGI (EKVX NSCLC) | TGI (NCI-H23 lung) | TGI (RPMI-8226 leukemia)
14.8 µM: TGI (HCC-2998 colon)
21.2 µM: TGI (HL-60(TB) leukemia)
11.2 µM: TGI (MDA-MB-435)
15.9 µM: TGI (UACC-62 melanoma)
inactive: GI50 (EKVX NSCLC) 4.08 µM | GI50 (TK-10 renal) 4.32 µM | GI50 (RXF 393 renal) 1.96 µM | GI50 (OVCAR-3 ovarian) 2.79 µM | GI50 (MCF7 breast) 2.9 µM | GI50 (HL-60(TB) leukemia) 2.43 µM | GI50 (U251 CNS) 3.01 µM | GI50 (HCT-15 colon) 2.4 µM | GI50 (OVCAR-4 ovarian) 4.13 µM | GI50 (UACC-257 melanoma) 4.25 µM | GI50 (SN12C renal) 3.86 µM | GI50 (SF-268 CNS) 3.19 µM | GI50 (LOX IMVI melanoma) 3.49 µM | GI50 (UO-31 renal) 2.16 µM | GI50 (SF-539 CNS) 3.3 µM | GI50 (SNB-75 CNS) 3.3 µM | GI50 (HT29 colon) 3.77 µM | GI50 (MDA-MB-231 breast) 5.09 µM | GI50 (HCT-116 colon) 3.39 µM | GI50 (DU-145 prostate) 2.87 µM | GI50 (COLO 205 colon) 7.2 µM | GI50 (SK-OV-3 ovarian) 6.32 µM | GI50 (MDA-MB-435) 2.94 µM | GI50 (BT-549 breast) 4.42 µM | GI50 (NCI-H226 lung) 8.07 µM | GI50 (OVCAR-5 ovarian) 6.1 µM | GI50 (NCI-H522 lung) 3.3 µM | GI50 (HOP-62 NSCLC) 4.2 µM | GI50 (786-0 renal) 4.33 µM | GI50 (IGROV1 ovarian) 2.59 µM | GI50 (SNB-19 CNS) 5.43 µM | GI50 (CCRF-CEM leukemia) 2.58 µM | GI50 (HCC-2998 colon) 3.75 µM | GI50 (SR leukemia) 2.39 µM | GI50 (M14 melanoma) 6.58 µM | GI50 (CAKI-1 renal) 2.74 µM | GI50 (NCI-H23 lung) 3.62 µM | GI50 (KM12 colon) 3.41 µM | GI50 (HS 578T breast) 2.49 µM | GI50 (MOLT-4 leukemia) 2.73 µM | GI50 (OVCAR-8 ovarian) 3.12 µM | GI50 (NCI/ADR-RES ovarian) 3.53 µM | GI50 (SK-MEL-2 melanoma) 3.53 µM | GI50 (ACHN renal) 3.53 µM | GI50 (K-562 leukemia) 3.39 µM | GI50 (A498 renal) 2.03 µM | GI50 (SF-295 CNS) 2.89 µM | GI50 (MALME-3M melanoma) 2.36 µM | GI50 (SW-620 colon) 3.5 µM | GI50 (UACC-62 melanoma) 3.73 µM | GI50 (A549 NSCLC) 4.3 µM | GI50 (NCI-H460 lung) 3.04 µM | GI50 (PC-3 prostate) 3.33 µM | GI50 (RPMI-8226 leukemia) 3.45 µM | GI50 (T-47D breast) 3.22 µM | GI50 (SK-MEL-5 melanoma) 4.29 µM
14.6 µM: TGI (HT29 colon)
13.7 µM: TGI (SF-295 CNS)
12.4 µM: TGI (KM12 colon)
22.9 µM: TGI (NCI-H226 lung)
11.1 µM: TGI (DU-145 prostate)
20.1 µM: TGI (A549 NSCLC)

N#CC(C#N)=CN1CCN(C(=O)c2ccccc2)C1=S
> 100 µM: TGI (OVCAR-3 ovarian) | TGI (U251 CNS) | TGI (HCT-15 colon) | TGI (HOP-92 NSCLC) | TGI (OVCAR-4 ovarian) | TGI (LOX IMVI melanoma) | TGI (SNB-75 CNS) | TGI (HT29 colon) | TGI (MDA-MB-231 breast) | TGI (HCT-116 colon) | TGI (SK-OV-3 ovarian) | TGI (MDA-MB-435) | TGI (HOP-62 NSCLC) | TGI (786-0 renal) | TGI (IGROV1 ovarian) | TGI (SNB-19 CNS) | TGI (CCRF-CEM leukemia) | TGI (M14 melanoma) | TGI (MOLT-4 leukemia) | TGI (OVCAR-8 ovarian) | TGI (NCI/ADR-RES ovarian) | TGI (K-562 leukemia) | TGI (SK-MEL-28 melanoma) | TGI (SF-295 CNS) | TGI (SW-620 colon) | TGI (UACC-62 melanoma) | TGI (A549 NSCLC) | TGI (PC-3 prostate) | TGI (RPMI-8226 leukemia) | TGI (T-47D breast)
75.1 µM: TGI (TK-10 renal)
49 µM: TGI (SF-268 CNS)
43.7 µM: TGI (NCI-H522 lung)
79.4 µM: TGI (HL-60(TB) leukemia)
43.6 µM: TGI (ACHN renal)
70.7 µM: TGI (RXF 393 renal)
50.1 µM: TGI (SK-MEL-5 melanoma)
65.8 µM: TGI (SN12C renal)
81.9 µM: TGI (UACC-257 melanoma)
60.1 µM: TGI (NCI-H23 lung)
89.4 µM: TGI (CAKI-1 renal)
79.9 µM: TGI (SR leukemia)
86.7 µM: TGI (KM12 colon)
11.4 µM: TGI (EKVX NSCLC)
53 µM: TGI (BT-549 breast)
47.3 µM: TGI (UO-31 renal)
inactive: GI50 (EKVX NSCLC) 3.48 µM | GI50 (TK-10 renal) 23.3 µM | GI50 (RXF 393 renal) 22.7 µM | GI50 (OVCAR-3 ovarian) 36.4 µM | GI50 (MCF7 breast) 16.7 µM | GI50 (HL-60(TB) leukemia) 33.5 µM | GI50 (U251 CNS) 38.2 µM | GI50 (HCT-15 colon) 36.4 µM | GI50 (HOP-92 NSCLC) 56.8 µM | GI50 (OVCAR-4 ovarian) 59.3 µM | GI50 (UACC-257 melanoma) 25.3 µM | GI50 (SN12C renal) 24.6 µM | GI50 (SF-268 CNS) 21.3 µM | GI50 (LOX IMVI melanoma) > 100 µM | GI50 (UO-31 renal) 20.4 µM | GI50 (SNB-75 CNS) > 100 µM | GI50 (HT29 colon) 42 µM | GI50 (MDA-MB-231 breast) 36.1 µM | GI50 (HCT-116 colon) 34 µM | GI50 (DU-145 prostate) 24.4 µM | GI50 (SK-OV-3 ovarian) 66.7 µM | GI50 (MDA-MB-435) 38.8 µM | GI50 (BT-549 breast) 22.8 µM | GI50 (NCI-H522 lung) 15.9 µM | GI50 (HOP-62 NSCLC) > 100 µM | GI50 (786-0 renal) 38.9 µM | GI50 (IGROV1 ovarian) 28.2 µM | GI50 (SNB-19 CNS) > 100 µM | GI50 (CCRF-CEM leukemia) > 100 µM | GI50 (SR leukemia) 18.8 µM | GI50 (M14 melanoma) 37.3 µM | GI50 (CAKI-1 renal) 28.7 µM | GI50 (NCI-H23 lung) 26.1 µM | GI50 (KM12 colon) 32.3 µM | GI50 (MOLT-4 leukemia) 39.2 µM | GI50 (OVCAR-8 ovarian) 77 µM | GI50 (NCI/ADR-RES ovarian) > 100 µM | GI50 (SK-MEL-2 melanoma) 18.4 µM | GI50 (ACHN renal) 18.8 µM | GI50 (K-562 leukemia) 79.5 µM | GI50 (SK-MEL-28 melanoma) 45.4 µM | GI50 (SF-295 CNS) 46.2 µM | GI50 (MALME-3M melanoma) 10.2 µM | GI50 (SW-620 colon) 33.7 µM | GI50 (UACC-62 melanoma) 50.4 µM | GI50 (A549 NSCLC) 37.1 µM | GI50 (NCI-H460 lung) 20 µM | GI50 (PC-3 prostate) 60 µM | GI50 (RPMI-8226 leukemia) 35.3 µM | GI50 (T-47D breast) 89.2 µM | GI50 (SK-MEL-5 melanoma) 23.3 µM
68.4 µM: TGI (SK-MEL-2 melanoma)
66.5 µM: TGI (NCI-H460 lung)
64.1 µM: TGI (MALME-3M melanoma)
55.9 µM: TGI (MCF7 breast)
85.9 µM: TGI (DU-145 prostate)
